For 1 compound, cell proliferation results are on record in patent US11117892B2, “Pyrrolo-pyridine derivative compound, method for preparing same, and pharmaceutical composition containing same as active ingredient for prevention or treatment of protein kinase-related diseases” (DAEGU-GYEONGBUK MEDICAL INNOVATION FOUNDATION, priority 2017, dated 2021).

In this test the test system is mouse pancreatic β-cell. Kind of test: mouse pancreatic β-cell proliferation (Ki-67/insulin staining). The class given is cell-based. The conditions noted are these: mouse pancreatic β-cells cultured with compound for 72 hours. As for the experimental part: It is known that when human β-cells are treated with harmine that inhibits DYRK1A, the proliferation of β-cells is promoted by increasing the transcription factor activity by inhibiting the phosphorylation of NFAT known as a phosphorylation substrate of DYRK1A.
Particularly, pancreatic Langerhans islet tissues were extracted from the mouse at 8 weeks old, followed by culture in RPMI1640 medium supplemented with 10% FCS (fetal calves serum), 5.5 mM glucose and 1% penicillin-streptomycin for 24 hours.
Next, in order to separate β-cells as single cells from the Langerhans islet, cells were washed twice with PBS, followed by centrifugation. The collected cells were left in the medium supplemented with 1 mg/ml of trypsin for 10 minutes at 37° C. The cells were shaken using a pipette every 10 seconds for 5 minutes. Trypsin reaction was terminated by adding RPMI1640 containing 10% FCS (fetal calves serum), 5.5 mM glucose and 1% penicillin-streptomycin, followed by centrifugation to collect single cells.
Then, the single cells were loaded on the laminin-coated cover glass and stabilized for 24 hours. The cells were cultured in the medium containing the compound of the present invention for 72 hours. […] The cells double-stained with Ki-67/insulin were counted under Olympus F-1000 confocal fluorescence microscope to investigate cell proliferation.

As to `COc1ccc2c(c1)[nH]c1c(C)nccc12` [harmine, reference compound], the cell proliferation entry is reported as “active”.
